# Data taken from PubChem BioAssay AID2060495 (Molecular Pharmacology Branch, DTP, NCI, 2025).
# System: 521955-158-R2-J5-PDC complex spheroid viability
# Test: Anticancer human tumor 521955-158-R2-J5-PDC patient-derived pancreatic carcinoma cell line growth inhibition [GQUAD]
# Details: for IC50: curve of first compound; for viability, T/C: stronger effect = lower value
# Outline: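 Viability of tumor cells grown as complex spheroids with endothelial and stromal cells, exposed to drug combinations. Top concentration at or near clinical Cmax (else 10 microM), diluted in half-log increments.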
# [1] = second compound 0.0316 µM, first compound 0.0316 µM
# [2] = second compound 0.0316 µM, first compound 0.1 µM
# [3] = second compound 0.0316 µM, first compound 0.316 µM
# [4] = second compound 0.0316 µM, first compound 1 µM
# [5] = second compound 0.0316 µM, first compound 3.16 µM
# [6] = second compound 0.0316 µM, first compound 10 µM
# [7] = second compound 0.1 µM, first compound 0.0316 µM
# [8] = second compound 0.1 µM, first compound 0.1 µM
# [9] = second compound 0.1 µM, first compound 0.316 µM
# [10] = second compound 0.1 µM, first compound 1 µM
# [11] = second compound 0.1 µM, first compound 3.16 µM
# [12] = second compound 0.1 µM, first compound 10 µM
# [13] = second compound 0.316 µM, first compound 0.0316 µM
# [14] = second compound 0.316 µM, first compound 0.1 µM
# [15] = second compound 0.316 µM, first compound 0.316 µM
# [16] = second compound 0.316 µM, first compound 1 µM
# [17] = second compound 0.316 µM, first compound 3.16 µM
# [18] = second compound 0.316 µM, first compound 10 µM
# [19] = second compound 1 µM, first compound 0.0316 µM
# [20] = second compound 1 µM, first compound 0.1 µM
# [21] = second compound 1 µM, first compound 0.316 µM
# [22] = second compound 1 µM, first compound 1 µM
# [23] = second compound 1 µM, first compound 3.16 µM
# [24] = second compound 1 µM, first compound 10 µM
# [25] = second compound 3.16 µM, first compound 0.0316 µM
# [26] = second compound 3.16 µM, first compound 0.1 µM
# [27] = second compound 3.16 µM, first compound 0.316 µM
# [28] = second compound 3.16 µM, first compound 1 µM
# [29] = second compound 3.16 µM, first compound 3.16 µM
# [30] = second compound 3.16 µM, first compound 10 µM
# [31] = second compound 10 µM, first compound 0.0316 µM
# [32] = second compound 10 µM, first compound 0.1 µM
# [33] = second compound 10 µM, first compound 0.316 µM
# [34] = second compound 10 µM, first compound 1 µM
# [35] = second compound 10 µM, first compound 3.16 µM
# [36] = second compound 10 µM, first compound 10 µM
# 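Note: spheroids exposed to agents for one week before reading.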
# 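Throughout, for viability, T/C: 100% = DMSO vehicle control viability.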
compound,measurement,setting,value
C#Cc1c(F)ccc2cc(O)cc(-c3ncc4c(N5CC6CCC(C5)N6)nc(OCC56CCCN5CC(F)C6)nc4c3F)c12 (stereo not given) + Cc1cnc(CNC(=O)c2c(=O)c3ccc(N4CCCN(C)CC4)nc3n3c2sc2ccccc23)cn1,IC50,second compound 0.0316 µM,< 31.6 nM
same,IC50,second compound 0.1 µM,< 31.6 nM
same,IC50,second compound 0.316 µM,< 31.6 nM
same,IC50,second compound 1 µM,< 31.6 nM
same,IC50,second compound 3.16 µM,< 31.6 nM
same,IC50,second compound 10 µM,< 31.6 nM
same,"viability, T/C",[1],35.4%
same,"viability, T/C",[2],31.3%
same,"viability, T/C",[3],26.2%
same,"viability, T/C",[4],19.1%
same,"viability, T/C",[5],17.9%
same,"viability, T/C",[6],13.9%
same,"viability, T/C",[7],24.5%
same,"viability, T/C",[8],26.6%
same,"viability, T/C",[9],21.4%
same,"viability, T/C",[10],18.3%
same,"viability, T/C",[11],17.2%
same,"viability, T/C",[12],13.3%
same,"viability, T/C",[13],19.3%
same,"viability, T/C",[14],20%
same,"viability, T/C",[15],18.3%
same,"viability, T/C",[16],16.1%
same,"viability, T/C",[17],14.1%
same,"viability, T/C",[18],11.5%
same,"viability, T/C",[19],11.3%
same,"viability, T/C",[20],12.6%
same,"viability, T/C",[21],10.9%
same,"viability, T/C",[22],8.41%
same,"viability, T/C",[23],9.79%
same,"viability, T/C",[24],5.56%
same,"viability, T/C",[25],2.92%
same,"viability, T/C",[26],0.7%
same,"viability, T/C",[27],2.89%
same,"viability, T/C",[28],0.31%
same,"viability, T/C",[29],0.11%
same,"viability, T/C",[30],0.08%
same,"viability, T/C",[31],0.08%
same,"viability, T/C",[32],0.7%
same,"viability, T/C",[33],0.19%
same,"viability, T/C",[34],0.15%
same,"viability, T/C",[35],0.18%
same,"viability, T/C",[36],0.16%
COc1cccc2c1C(=O)c1c(O)c3c(c(O)c1C2=O)CC(O)(C(=O)CO)CC3OC1CC(N)C(O)C(C)O1 (stereo not given) + CN(C)c1ccc(Nc2c3ccc(NC(=O)CCN4CCCC4)cc3nc3cc(NC(=O)CCN4CCCC4)ccc23)cc1,IC50,second compound 0.0316 µM,164 nM
same,IC50,second compound 0.1 µM,221 nM
same,IC50,second compound 0.316 µM,208 nM
same,IC50,second compound 1 µM,186 nM
same,IC50,second compound 3.16 µM,176 nM
same,IC50,second compound 10 µM,422 nM
same,"viability, T/C",[1],85.5%
same,"viability, T/C",[2],56.6%
same,"viability, T/C",[3],31.2%
same,"viability, T/C",[4],37.4%
same,"viability, T/C",[5],3.76%
same,"viability, T/C",[6],2.73%
same,"viability, T/C",[7],97.3%
same,"viability, T/C",[8],68.8%
same,"viability, T/C",[9],37.8%
same,"viability, T/C",[10],29.9%
same,"viability, T/C",[11],2.6%
same,"viability, T/C",[12],2.75%
same,"viability, T/C",[13],101%
same,"viability, T/C",[14],67.6%
same,"viability, T/C",[15],34.3%
same,"viability, T/C",[16],33.3%
same,"viability, T/C",[17],1.27%
same,"viability, T/C",[18],2.99%
same,"viability, T/C",[19],85.9%
same,"viability, T/C",[20],67.9%
same,"viability, T/C",[21],29.1%
same,"viability, T/C",[22],30.7%
same,"viability, T/C",[23],0.97%
same,"viability, T/C",[24],3%
same,"viability, T/C",[25],83%
same,"viability, T/C",[26],58.2%
same,"viability, T/C",[27],34.1%
same,"viability, T/C",[28],36.5%
same,"viability, T/C",[29],1.22%
same,"viability, T/C",[30],1.89%
same,"viability, T/C",[31],61.9%
same,"viability, T/C",[32],61.7%
same,"viability, T/C",[33],52.9%
same,"viability, T/C",[34],33.1%
same,"viability, T/C",[35],1.41%
same,"viability, T/C",[36],1.9%
CC(C)(O)C1CCC(Nc2ccc3ncc(-c4cccc(C(F)(F)F)c4)n3n2)CC1 (stereo not given) + Cc1[nH]c2ccc(F)cc2c1-c1nc2c3cccnc3c3ncccc3c2[nH]1,IC50,second compound 0.0316 µM,2050 nM
same,IC50,second compound 0.1 µM,1990 nM
same,IC50,second compound 0.316 µM,2010 nM
same,IC50,second compound 1 µM,1960 nM
same,IC50,second compound 3.16 µM,1930 nM
same,IC50,second compound 10 µM,1890 nM
same,"viability, T/C",[1],93.5%
same,"viability, T/C",[2],109%
same,"viability, T/C",[3],101%
same,"viability, T/C",[4],125%
same,"viability, T/C",[5],15.5%
same,"viability, T/C",[6],10.8%
same,"viability, T/C",[7],102%
same,"viability, T/C",[8],107%
same,"viability, T/C",[9],103%
same,"viability, T/C",[10],117%
same,"viability, T/C",[11],11.3%
same,"viability, T/C",[12],11.7%
same,"viability, T/C",[13],107%
same,"viability, T/C",[14],100%
same,"viability, T/C",[15],102%
same,"viability, T/C",[16],116%
same,"viability, T/C",[17],12.6%
same,"viability, T/C",[18],14.7%
same,"viability, T/C",[19],95.8%
same,"viability, T/C",[20],94.3%
same,"viability, T/C",[21],102%
same,"viability, T/C",[22],121%
same,"viability, T/C",[23],11.7%
same,"viability, T/C",[24],11.9%
same,"viability, T/C",[25],91.2%
same,"viability, T/C",[26],79.3%
same,"viability, T/C",[27],92.9%
same,"viability, T/C",[28],113%
same,"viability, T/C",[29],16.5%
same,"viability, T/C",[30],10.7%
same,"viability, T/C",[31],83.2%
same,"viability, T/C",[32],87.8%
same,"viability, T/C",[33],102%
same,"viability, T/C",[34],126%
same,"viability, T/C",[35],9.89%
same,"viability, T/C",[36],9.4%
C=CC(=O)N1CCN(c2nc(=O)n(-c3c(C)ccnc3C(C)C)c3nc(-c4c(O)cccc4F)c(F)cc23)C(C)C1 (stereo not given) + Cc1cnc(CNC(=O)c2c(=O)c3ccc(N4CCCN(C)CC4)nc3n3c2sc2ccccc23)cn1,IC50,second compound 0.0316 µM,> 10000 nM
same,IC50,second compound 0.1 µM,> 10000 nM
same,IC50,second compound 0.316 µM,< 31.6 nM
same,IC50,second compound 1 µM,< 31.6 nM
same,IC50,second compound 3.16 µM,< 31.6 nM
same,IC50,second compound 10 µM,< 31.6 nM
same,"viability, T/C",[1],81%
same,"viability, T/C",[2],70.8%
same,"viability, T/C",[3],84.4%
same,"viability, T/C",[4],79.2%
same,"viability, T/C",[5],77%
same,"viability, T/C",[6],72.2%
same,"viability, T/C",[7],60.3%
same,"viability, T/C",[8],55.3%
same,"viability, T/C",[9],56.1%
same,"viability, T/C",[10],57.3%
same,"viability, T/C",[11],61.5%
same,"viability, T/C",[12],52.9%
same,"viability, T/C",[13],36.6%
same,"viability, T/C",[14],32.1%
same,"viability, T/C",[15],33.7%
same,"viability, T/C",[16],46.9%
same,"viability, T/C",[17],49.1%
same,"viability, T/C",[18],32.1%
same,"viability, T/C",[19],21.5%
same,"viability, T/C",[20],20.2%
same,"viability, T/C",[21],19.7%
same,"viability, T/C",[22],26.2%
same,"viability, T/C",[23],21.7%
same,"viability, T/C",[24],19.3%
same,"viability, T/C",[25],22.8%
same,"viability, T/C",[26],17.6%
same,"viability, T/C",[27],19.9%
same,"viability, T/C",[28],20.5%
same,"viability, T/C",[29],25%
same,"viability, T/C",[30],18.4%
same,"viability, T/C",[31],18.4%
same,"viability, T/C",[32],18.5%
same,"viability, T/C",[33],20.9%
same,"viability, T/C",[34],18%
same,"viability, T/C",[35],13.7%
same,"viability, T/C",[36],15.8%
O=C(c1cc(Cc2n[nH]c(=O)c3ccccc23)ccc1F)N1CCN(C(=O)C2CC2)CC1 + CN(C)c1ccc(Nc2c3ccc(NC(=O)CCN4CCCC4)cc3nc3cc(NC(=O)CCN4CCCC4)ccc23)cc1,IC50,second compound 0.0316 µM,> 10000 nM
same,IC50,second compound 0.1 µM,> 10000 nM
same,IC50,second compound 0.316 µM,> 10000 nM
same,IC50,second compound 1 µM,> 10000 nM
same,IC50,second compound 3.16 µM,> 10000 nM
same,IC50,second compound 10 µM,> 10000 nM
same,"viability, T/C",[1],93.1%
same,"viability, T/C",[2],85.2%
same,"viability, T/C",[3],94%
same,"viability, T/C",[4],83.5%
same,"viability, T/C",[5],97.1%
same,"viability, T/C",[6],85.5%
same,"viability, T/C",[7],94.4%
same,"viability, T/C",[8],89.4%
same,"viability, T/C",[9],97.5%
same,"viability, T/C",[10],86.6%
same,"viability, T/C",[11],88.3%
same,"viability, T/C",[12],71.9%
same,"viability, T/C",[13],93%
same,"viability, T/C",[14],90.9%
same,"viability, T/C",[15],91%
same,"viability, T/C",[16],85.4%
same,"viability, T/C",[17],92.6%
same,"viability, T/C",[18],84.1%
same,"viability, T/C",[19],90%
same,"viability, T/C",[20],82.7%
same,"viability, T/C",[21],92.3%
same,"viability, T/C",[22],84.5%
same,"viability, T/C",[23],102%
same,"viability, T/C",[24],72.8%
same,"viability, T/C",[25],75.4%
same,"viability, T/C",[26],90.5%
same,"viability, T/C",[27],67.1%
same,"viability, T/C",[28],77.4%
same,"viability, T/C",[29],80%
same,"viability, T/C",[30],71.5%
same,"viability, T/C",[31],57%
same,"viability, T/C",[32],64.5%
same,"viability, T/C",[33],68.7%
same,"viability, T/C",[34],56.5%
same,"viability, T/C",[35],48.7%
same,"viability, T/C",[36],63%
